Legend:
ENT1 = target: T1, ENT1 (Homo sapiens, UniProt Q99808); assay: Radiolabeled BA transport in ENT1 mRNA-injected Xenopus oocytes; format: cell-based; settings: 3H-labelled BA, Na+-containing buffer, pH 7.4
T1 construct: The complete ORF of ENT1 (amplified using forward primer); expressed in transfected cells; host or cells: Xenopus laevis oocytes injected with in vitro-transcribed capped mRNA from pOX-hENT1
T1 sequence (Q99808 1-456): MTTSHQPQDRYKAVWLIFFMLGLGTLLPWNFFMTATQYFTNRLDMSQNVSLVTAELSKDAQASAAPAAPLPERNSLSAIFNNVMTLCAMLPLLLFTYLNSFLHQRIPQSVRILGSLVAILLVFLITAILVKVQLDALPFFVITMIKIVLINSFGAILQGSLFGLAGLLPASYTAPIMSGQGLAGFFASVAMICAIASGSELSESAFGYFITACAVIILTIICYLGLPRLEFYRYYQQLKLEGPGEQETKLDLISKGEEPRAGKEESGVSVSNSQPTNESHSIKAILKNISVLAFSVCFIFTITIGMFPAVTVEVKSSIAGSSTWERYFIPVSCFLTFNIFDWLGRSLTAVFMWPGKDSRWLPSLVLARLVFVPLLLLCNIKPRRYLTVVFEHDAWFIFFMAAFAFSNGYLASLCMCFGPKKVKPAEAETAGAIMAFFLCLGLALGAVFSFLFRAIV
Protocol: (§1) We used a Xenopus oocyte-based transport assay that was previously used to examine BA transport by plasma membrane–directed ENT3 with a truncated N-terminus (that harbors lysosomal targeting motif) to experimentally verify whether ENT2 is capable of translocating BAs across the cell membrane ([24]). We tested both ENT1 and ENT2 along with CNT2, a purine nucleoside-specific concentrative transporter, to investigate their capacities to transport radiolabeled BAs. […] Transport was measured at pH 7.4, which is the closest pH to the pH of the extracellular fluid in which cells are exposed to solutes such as BAs to conduct plasma membrane transport ([29]).
(§2) The generated pOX expression constructs were linearized with either the Not1 or Sac1 restriction enzymes. The digested products were purified via phenol‒chloroform extraction. The mRNAs were synthesized using mMESSAGE mMACHINE (Ambion) transcription kits according to the manufacturer’s instructions. The mRNAs were purified via lithium precipitation. Oocytes were procured from Ecocyte. Prior to experiments, procured oocytes were defolliculated by treating with collagenase A-OR II solution followed by washing with Barth’s solution. Following microscopic verification, selected oocytes were incubated to recover overnight at 25 °C in a shaker incubator. Fifty nanoliters (400–800 ng/μl) of equal amounts of mRNAs were injected into defolliculated oocytes the next day. Expression of plasmids was analyzed after RNA isolation from oocyte extracts and conducting qPCR analysis with gene-specific primers as described earlier ([30]). The injected oocytes were incubated at 15 °C for 24 h before transport assays were performed. The uptake of radiolabeled substrates was measured after a 30 min incubation in transport buffer (100 mM NaCl, 2 mM KCl, 1 mM CaCl2, 1 mM MgCl2, and 10 mM Hepes, pH 7.4) at room temperature. […] Individual oocytes were shaken overnight in 10% SDS for complete dissolution, and then the radioactivity was quantified with a Beckman liquid scintillation counter. […]

CNT2 = target: T2, CNT2 (Homo sapiens, UniProt O43868); assay: Radiolabeled BA transport in CNT2 mRNA-injected Xenopus oocytes; format: cell-based; settings: 3H-labelled BA, Na+-containing buffer, pH 7.4
T2 construct: expressed in transfected cells; host or cells: Xenopus laevis oocytes injected with in vitro-transcribed capped mRNA
T2 sequence (O43868 1-658): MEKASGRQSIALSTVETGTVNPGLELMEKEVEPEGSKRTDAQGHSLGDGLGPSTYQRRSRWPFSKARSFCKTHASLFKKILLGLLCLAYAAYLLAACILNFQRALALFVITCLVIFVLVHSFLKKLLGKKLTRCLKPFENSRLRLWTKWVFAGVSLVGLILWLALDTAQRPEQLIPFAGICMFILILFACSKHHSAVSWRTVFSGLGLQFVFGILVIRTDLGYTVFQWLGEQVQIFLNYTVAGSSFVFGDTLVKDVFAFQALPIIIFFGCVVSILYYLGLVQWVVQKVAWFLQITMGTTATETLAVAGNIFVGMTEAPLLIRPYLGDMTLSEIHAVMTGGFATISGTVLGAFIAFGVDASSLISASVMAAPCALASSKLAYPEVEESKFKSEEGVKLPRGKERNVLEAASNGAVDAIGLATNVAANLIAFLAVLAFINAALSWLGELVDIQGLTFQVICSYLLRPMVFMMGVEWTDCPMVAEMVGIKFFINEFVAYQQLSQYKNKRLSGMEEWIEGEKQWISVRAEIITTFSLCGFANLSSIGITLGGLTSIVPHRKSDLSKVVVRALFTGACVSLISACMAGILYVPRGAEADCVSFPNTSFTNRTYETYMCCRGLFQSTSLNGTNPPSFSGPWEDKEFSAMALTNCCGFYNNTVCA
Protocol: as §1, §2

Row | Compound | transport of BA by ENT1 (ENT1) | transport of BA by CNT2 (CNT2)
1 | C[C@H](CCC(=O)O)[C@H]1CC[C@H]2[C@@H]3CC[C@@H]4C[C@H](O)CC[C@]4(C)[C@H]3C[C@H](O)[C@]12C [DCA, deoxycholic acid] | incapable of transporting | incapable of transporting
2 | C[C@H](CCC(=O)NCCS(=O)(=O)O)[C@H]1CC[C@H]2[C@@H]3[C@H](O)C[C@@H]4C[C@H](O)CC[C@]4(C)[C@H]3C[C@H](O)[C@]12C [TCA, taurocholic acid] | incapable of transporting | incapable of transporting
3 | C[C@H](CCC(=O)O)[C@H]1CC[C@H]2[C@@H]3[C@H](O)C[C@@H]4C[C@H](O)CC[C@]4(C)[C@H]3C[C@H](O)[C@]12C [CA, cholic acid] | incapable of transporting | incapable of transporting

Source: publication PMC12152883, “Bile acids inhibit equilibrative adenosine transport to alter adenosine receptor signaling in cholestasis” (The Journal of Biological Chemistry, 2025)
